This is an account of results in ChEMBL document CHEMBL3046862, “Structure-activity relationship of aliphatic compounds for nematicidal activity against pine wood nematode (Bursaphelenchus xylophilus)” (2010).

For orientation: mortality means the share of the test organisms that died.

The test system of the first test is Bursaphelenchus xylophilus. Description: microbe, parasite or virus in culture. The class given is functional. Particulars: 48 h, at 0.125 mg/mL.
Description: Nematicidal activity against Bursaphelenchus xylophilus assessed as mortality at 0.125 mg/ml measured after 48 hr under microscope
For `CCCCCCC/C=C/CO`, the mortality at 125 µg/mL was found to be 100%. Still for that read-out and setting: for `CCCCCC/C=C/CO` the value was 45.5%; for `CCCCCCCC/C=C/CO`, 100%; for `CCC/C=C/C=O`, 22%.

`CCCCC/C=C/C=O` gave a mortality at 125 µg/mL of 90.6%. In turn, `CCCC/C=C/C=O` came in with a mortality at 125 µg/mL of 76.3%.

Regarding `CCCCCC/C=C/C=O` [2-NONENAL], the mortality at 125 µg/mL turned out to be 99.8%. Same read-out and setting: for `CCCCCCCCCC(=O)O` [DECANOIC ACID] the value was 100%; for `CCCCCCCCCCO` [DECANOL], 100%.

The molecule `CCCCCCCCC(=O)O` [NONANOATE] had a mortality at 125 µg/mL of 100%. The same measure, in the same setting: to `CCCCCCCCCO` [NONANOL] belongs 81%; to `CCCCCCCC(=O)O` [OCTANOIC ACID], 50.1%; to `CCCCCCCCCCC(=O)O` [UNDECANOATE], 51.3%. The same measure, in the same setting: to `CCCCCCCCCCCO` [UNDECANOL] belongs 99.4%.

A further test has as its system Bursaphelenchus xylophilus. Kind of test: Nematicidal activity against Bursaphelenchus xylophilus assessed as mortality at 0.25 mg/ml measured after 48 hr under microscope. The class given is functional.
Conditions: not given
Turning to `CCCCCCC/C=C/CO`, the mortality at 250 µg/mL is 100%.

Turning to `CCCCC/C=C/CO`, the mortality at 250 µg/mL worked out at 31.5%. On the same count and under the same terms, to `CCCCCC/C=C/CO` belongs 100%. Regarding `CCCCCCCC/C=C/CO`, the mortality at 250 µg/mL was 100%. Still for that read-out and setting: to `CCC/C=C/C=O` belongs 83.1%; to `CCCCC/C=C/C=O`, 99%.

Take `CCCC/C=C/C=O`: the mortality at 250 µg/mL was found to be 97.8%.

With `CCCCCC/C=C/C=O` [2-NONENAL], the mortality at 250 µg/mL was found to be 100%. On the same count and under the same terms, for `CCCCCCCCCC(=O)O` [DECANOIC ACID] the value was 100%; for `CCCCCCCCCCO` [DECANOL], 100%.

Take `CCCCCCC(=O)O` [HEPTANOATE]: the mortality at 250 µg/mL amounted to 53.7%. On the same count and under the same terms, to `CCCCCCCCC(=O)O` [NONANOATE] belongs 100%; to `CCCCCCCCCO` [NONANOL], 100%. On the same count and under the same terms, for `CCCCCCCC(=O)O` [OCTANOIC ACID] the value was 98.9%. Still for that read-out and setting: for `CCCCCCCCO` [OCTANOL] the value was 17%. As to `CCCCCCCCCCC(=O)O` [UNDECANOATE], the mortality at 250 µg/mL was found to be 96%. Consider `CCCCCCCCCCCO` [UNDECANOL], for which the mortality at 250 µg/mL amounted to 100%.

A further test deals with Bursaphelenchus xylophilus. Kind of test: Nematicidal activity against Bursaphelenchus xylophilus assessed as mortality at 0.0625 mg/ml measured after 48 hr under microscope. In kind it is functional.
Conditions: not given
`CCCCCCC/C=C/CO`: the mortality at 62.5 µg/mL came out at 43.3%.

For the molecule `CCCCCCCC/C=C/CO`, the mortality at 62.5 µg/mL amounted to 45.1%. Same read-out and setting: for `CCCCC/C=C/C=O` the value was 22.6%. On the same count and under the same terms, for `CCCC/C=C/C=O` the value was 18%; for `CCCCCC/C=C/C=O` [2-NONENAL], 47.4%. On to `CCCCCCCCCC(=O)O` [DECANOIC ACID], for which the mortality at 62.5 µg/mL came to 59.8%.

Consider `CCCCCCCCCCO` [DECANOL], for which the mortality at 62.5 µg/mL was found to be 15.6%. Still for that read-out and setting: to `CCCCCCCCC(=O)O` [NONANOATE] belongs 40.1%.

Consider `CCCCCCCCCO` [NONANOL], for which the mortality at 62.5 µg/mL was found to be 4.7%.

With `CCCCCCCCCCCO` [UNDECANOL], the mortality at 62.5 µg/mL was determined as 98.3%.

The test system of another test is Bursaphelenchus xylophilus. Description: Nematicidal activity against Bursaphelenchus xylophilus at 0.5 mg/ml measured after 48 hr under microscope. The class given is functional.
Conditions: not given
For the molecule `CCCCCCCCCCC`, the mortality at 500 µg/mL is 1.6%. Same read-out and setting: to `CCCCCCCCCCCCCC` belongs 1.7%; to `CCCCCCCCCCCCC`, 3.3%; to `CCCCCCCCCC/C=C/C=O`, 4.9%. `CCCCCCC/C=C/CO` returned a mortality at 500 µg/mL of 100%. Still for that read-out and setting: for `CCCCCCCCC/C=C/C=O` the value was 5.1%. Still for that read-out and setting: to `CCCCCCCCCCC/C=C/C=O` belongs 3.3%; to `CCCCCCCCCCCCCCOC(C)=O`, 0.9%. The same measure, in the same setting: for `CCC/C=C/CO` the value was 13%. With `CCCC/C=C/CO`, the mortality at 500 µg/mL amounted to 50.9%. As to `CCCCC/C=C/CO`, the mortality at 500 µg/mL turned out to be 97.4%. Consider `CCCCCC/C=C/CO`, for which the mortality at 500 µg/mL was 100%. Still for that read-out and setting: for `CCCCCCCC/C=C/CO` the value was 100%; for `CCCCCCCCC/C=C/CO`, 4.7%. For the molecule `CCCCCCCCCC/C=C/CO`, the mortality at 500 µg/mL stood at 3.5%. The same measure, in the same setting: for `CCCCCCCCCCC/C=C/CO` the value was 2.6%. Still for that read-out and setting: to `CCC/C=C/C=O` belongs 95.6%. In turn, `CCCCCCCCCCCCCO` came in with a mortality at 500 µg/mL of 4.4%. Same read-out and setting: to `CCCCC/C=C/C=O` belongs 100%.

As to `CCCCCCCC/C=C/C=O`, the mortality at 500 µg/mL came out at 24.8%. The same measure, in the same setting: for `CCCC/C=C/C=O` the value was 100%; for `CCCCCCCO` [1-HEPTANOL], 29.8%. `CCCCCCO` [1-HEXANOL] gave a mortality at 500 µg/mL of 12.6%. On the same count and under the same terms, to `CCCCCC/C=C/C=O` [2-NONENAL] belongs 100%. Same read-out and setting: for `CCCCCCCCCC=O` [DECANAL] the value was 7.9%. On the same count and under the same terms, for `CCCCCCCCCC` [DECANE] the value was 1.6%; for `CCCCCCCCCC(=O)O` [DECANOIC ACID], 100%; for `CCCCCCCCCCO` [DECANOL], 100%. `CCCCCCCCCCOC(C)=O` [DECYLACETATE] returned a mortality at 500 µg/mL of 1.6%. The molecule `CCCCCCCCCCCC=O` [DODECANAL] came in with a mortality at 500 µg/mL of 6.6%. Molecule `CCCCCCCCCCCC` [DODECANE] showed a mortality at 500 µg/mL of 1.6%.

`CCCCCCCCCCCC(=O)O` [DODECANOATE] yielded a mortality at 500 µg/mL of 1.9%. Molecule `CCCCCCCCCCCCO` [DODECANOL] came in with a mortality at 500 µg/mL of 3.1%. As for `CCCCCCCCCCCCOC(C)=O` [DODECYLACETATE], the mortality at 500 µg/mL came out at 1.7%. Same read-out and setting: for `CCCCCCC=O` [HEPTANAL] the value was 6%; for `CCCCCCC` [HEPTANE], 2.6%; for `CCCCCCC(=O)O` [HEPTANOATE], 100%. On the same count and under the same terms, for `CCCCCCCOC(C)=O` [HEPTYLACETATE] the value was 7.4%. `CCCCCC=O` [HEXANAL] returned a mortality at 500 µg/mL of 4.2%. Same read-out and setting: for `CCCCCC` [HEXANE] the value was 4.4%. The same measure, in the same setting: for `CCCCCC(=O)O` [HEXANOATE] the value was 31.3%; for `CCCCCCOC(C)=O` [HEXYL ACETATE], 1.5%; for `CCCCCCCCCCCCCC(=O)O` [MYRISTIC ACID], 3.8%. On the same count and under the same terms, to `CCCCCCCCCCCCCCO` [MYRISTYL ALCOHOL] belongs 4%. Molecule `CCCCCCCCC=O` [NONANAL] displayed a mortality at 500 µg/mL of 14.2%. On the same count and under the same terms, for `CCCCCCCCC` [NONANE] the value was 2.3%; for `CCCCCCCCC(=O)O` [NONANOATE], 100%. Same read-out and setting: to `CCCCCCCCCO` [NONANOL] belongs 100%; to `CCCCCCCCCOC(C)=O` [NONYLACETATE], 3.1%; to `CCCCCCCC=O` [OCTANAL], 13.6%. The same measure, in the same setting: to `CCCCCCCC` [OCTANE] belongs 3.8%; to `CCCCCCCC(=O)O` [OCTANOIC ACID], 100%. Molecule `CCCCCCCCO` [OCTANOL] displayed a mortality at 500 µg/mL of 100%. Same read-out and setting: to `CCCCCCCCOC(C)=O` [OCTYL ACETATE] belongs 4.9%; to `CCCCCCCCCCCCCC=O` [TETRADECANAL], 3.5%.

As to `CCCCCCCCCCCCC=O` [TRIDECANAL], the mortality at 500 µg/mL worked out at 7.6%. Still for that read-out and setting: for `CCCCCCCCCCCCC(=O)O` [TRIDECANOATE] the value was 4.4%; for `CCCCCCCCCCCCCOC(C)=O` [TRIDECYLACETATE], 1.4%; for `CCCCCCCCCCC=O` [UNDECANAL], 7.4%.

In turn, `CCCCCCCCCCC(=O)O` [UNDECANOATE] displayed a mortality at 500 µg/mL of 98.5%. Still for that read-out and setting: to `CCCCCCCCCCCO` [UNDECANOL] belongs 100%; to `CCCCCCCCCCCOC(C)=O` [UNDECYLACETATE], 2.3%.
